Like-named read-outs stand apart in the source and are kept apart here.
How the values were obtained:
HSV-1 = experiment: Viral inhibition, HSV-1 (Example 7, method of Example 5); format: cell-based, herpes simplex type 1; settings: Human alphaherpesvirus 1
Protocol: (§1) In accordance with the present invention, 1-(2-Deoxy-β-D-ribofuranosyl)-5-(methylmercapto)-2-pyrimidinone is prepared essentially in accordance with the procedure set forth in "Snythesis and Antiviral Activity of 1-(2-Deoxy-β-D-ribofuranosyl)-5-(methylmercapto)-2-pyrimidinone" by Schroeder and Bardos and Cheng, Volume 24, page 109, January 1981. HeLa cells were infected in 1640 RPMI medium with herpes simplex type 1 (HSV-1) and independently with herpes simplex type 2 (HSV-2) virus at a multiplicity of 5 to 10 plaque forming units per cell. The composition of 1640 RPMI medium is reported in "Biological Activity of 5 Ethyl, 5 Propyl, and 5 Vinyl 2'-Deoxyuridine" by Cheng et al published in Antimicrobial Agents and Chemotherapy, Volume 10, beginning at page 119 (1976). 1640 RPMI medium is commercially available from Gibco Company, Grand Island, N.Y. After 1 hour, virus absorption, the drugs were added. Resulting cultures were analyzed for virus titer at 24 hours post infection a described in the procedure set forth in "Biological Activity of 5-Ethyl, 5-Propyl and 5-Vinyl 2'-uridine" by Cheng et al. The results are set forth in Table 2. The numbers set forth in Table 2 show the number of plaque forming units in the control which contained no methylmercapto compound and the number of units at concentrations of 100, 200 and 400 micromoles of the methylmercapto compound. The results clearly indicate substantial decrease in the number of plaque forming units in the presence of 1-(2-Deoxy-β-D-ribofuranosyl)-5-(methylmercapto)-2-pyrimidinone.
(§2) The above described methyl compound was tested for viral inhibition substantially in accordance with the method of Example 5 except that the concentrations were 50 and 100 micromolar.

HSV-2 = experiment: Viral inhibition, HSV-2 (Example 7, method of Example 5); format: cell-based, herpes simplex type 2; settings: Human alphaherpesvirus 2
Protocol: as §1, §2

murine leukemia L 1210 = settings: cited from earlier work
virus = settings: literature; cited from earlier work
HSV-1 (KOS) = experiment: Antiherpes activity, HSV-1 (KOS) (Example 10); format: cell-based
Protocol: (§3) IPdR and 5-bromo-2-pyrimidinone-2-deoxyribonucleoside (BrPdR) were tested for antiherpes activity according to procedures described by Cheng, Y.-C., et al. Antimicrob. Agents Chemother (1976) 10, 119.

HSV-1 (CLl0l) = experiment: Antiherpes activity, HSV-1 (CLl0l) (Example 10); format: cell-based
Protocol: as §3

[1] = system: ACG (S1), acyclovir resistant strain of HSV1; experiment: Antiherpes activity, acyclovir resistant strain of HSV1 (S1) (Example 10); format: cell-based, HSV-1; settings: Human alphaherpesvirus 1, read-out: plaque-forming units as % of control
Protocol: as §3

[2] = system: ACG (Tr7), acyclovir resistant strain of HSV1; experiment: Antiherpes activity, acyclovir resistant strain of HSV1 (Tr7) (Example 10); format: cell-based, HSV-1; settings: Human alphaherpesvirus 1, read-out: plaque-forming units as % of control
Protocol: as §3

[3] = system: BVdU resistant strain of HSV-1; experiment: Antiherpes activity, BVdU resistant strain (Example 10); format: cell-based; settings: Human alphaherpesvirus 1, read-out: plaque-forming units as % of control
Protocol: as §3

PFA-resistant strains = experiment: Antiherpes activity, PFA-resistant strain (Example 10); format: cell-based; settings: 5 μM; read-out: plaque-forming units as % of control
Protocol: as §3

HSV-2 (333) = experiment: Antiherpes activity, HSV-2 (333) (Example 10); format: cell-based
Protocol: as §3

HSV-2 (CEU-G) = experiment: Antiherpes activity, HSV-2 (CEU-G) (Example 10); format: cell-based; settings: Human alphaherpesvirus 2, read-out: plaque-forming units as % of control
Protocol: as §3

[4] = system: HSV-1 and HSV-2 strains (herpes virus group); experiment: Antiherpes activity, overall statement; format: cell-based
Protocol: as §3

HSV-2 (Strain 333) [5] = experiment: Antiviral activity in HSV-2 infected mice by various routes (Example 9); format: in vivo, Swiss-Webster female mice; settings: for % ILS: excluding 45 day survivors
Protocol: The drugs were administered once a day for five days or twice daily (12 hour intervals) for 2.5 days beginning 24 hours postinfection. Mean body weight determinations of drug treated and control animals were made during the treatment period as an indicator of sublethal toxicity. Deaths were recorded through day 45.

HSV-2 (strain 333) [6] = experiment: Antiviral activity, HSV-2 plaque reduction (Example 8 Part A); format: cell-based
Protocol: The effects of 1-(2-Deoxy-β-D-ribofuranosyl)-5-iodo-2-pyrimidinone (IPdR) of Example 3 were compared with 1-(2-Deoxy-β-D-ribofuranosyl)-5-fluoro-2-pyrimidinone (FPdR) on HSV-2 (strain 333) in […]. Twenty four well plates (sterile) were plated with 10^6 Vero cells/well the day before infecting. 250 PFU of HSV-2 were used in each well. The test compounds, IPdR and FPdR, were added at zero times of post infection and the cultures incubated at 37° C. for 48 hours. At the end of the incubation period the media was removed from Vero cells. Plates were strained with 0.8% crystal violet in 50% ethanol for 15 minutes. The plaque was counted.

[7] = Cytotoxicity / cell proliferation in KB cells (Example 8 Part B); format: cell-based, human; settings: human, kb cells, 72 hour exposure
Protocol: (§4) To compare the toxicity of FPdR and IPdR human nasopharyngeal carcinoma KB cells obtained from the American Type Culture Collection were maintained as a monolayer in RPMI 1640 supplemented with 5% fetal bovine serum, 10 mM HEPES buffer (pH 7.4) and karamycin (100 μg/ml). Cells were maintained at 37° C. in a humidified atmosphere of 5% CO2 in air. Cell numbers were determined with an electronic particle counter (Particle Data, Inc., Elmhurst, Ill.).
(§5) For determination of drug effect on cell proliferation, cells were harvested from rapidly proliferting cultures by treatment with pancreation. Cell number was determined and plated in 24 well (6 mm well diameter) plates at a concentratin of 5×10^3 cells/ml. Drug exposures were initiated by a complete change of medium after overnight incubation. Following a 72 hour drug exposure […]. of thiazolyl blue was added and incubated for a further 4 hour period. The media from the plates was aspirated completely and […] DMSO was added to each well. The plates were placed on a shaker for 5 minutes and the blue solution transferred to 96 well plates and read at 540 nm with a scanning multiwell spectrophotometer (Biotek Instruments, Inc. Burlington, Vt.).

[8] = system: human nasopharyngeal carcinoma KB cells; experiment: as above; format: cell-based
Protocol: as §4, §5

host cell = settings: literature, Oftebro et al., Oyen et al.; cited from earlier work
[9] = intravenous injection; cited from earlier work
nucleotidases = settings: systemic administration; cited from earlier work
bone marrow = settings: cited from earlier work
[10] = system: herpatic lesions of the skin; settings: topical; cited from earlier work
[11] = 50 micromolar, vs untreated control
[12] = Human alphaherpesvirus 1, 5 μM, read-out: plaque-forming units as % of control
[13] = Human alphaherpesvirus 1, read-out: plaque-forming units as % of control
[14] = 40 mg/kg oral, 2 × 21/2, 72 hours after implant
[15] = 40 mg/kg oral, 2 × 21/2, innoculation dose 1 × 10^6 PFU

Cc1cnc(=O)n(C2C[C@H](O)[C@@H](CO)O2)c1 (stereo in doubt) [methyl compound, 1-(2-Deoxy-α-D-ribofuranosyl)-5-(methyl)-2-pyrimidinone]
inhibition at 50 µM (HSV-1; [11]): 95.5% | inhibition at 100 µM (HSV-1; 100 micromolar): 99% | inhibition at 50 µM (HSV-2; [11]): 87.9% | inhibition at 100 µM (HSV-2; 100 micromolar): 98.3%

O=c1ncc(Br)cn1[C@@H]1O[C@H](CO)[C@@H](O)[C@H]1O [5-bromo]
anti-tumor activity (murine leukemia L 1210): lack of anti-tumor activity

O=c1ncc(Cl)cn1[C@@H]1O[C@H](CO)[C@@H](O)[C@H]1O [5-chloro]
anti-tumor activity (murine leukemia L 1210): lack of anti-tumor activity

O=c1ncc(F)cn1[C@@H]1O[C@H](CO)[C@@H](O)[C@H]1O [5-fluoro riboside, 5-fluoro-pyrimidin-2-one riboside]
anti-viral activity (virus): possessing anti-viral activity | anti-tumor activity (murine leukemia L 1210): only the 5-fluoro was active

Nc1nc2c(ncn2COCCO)c(=O)[nH]1 [ACG, acyclovir, reference compound]
activity at 5 µM (HSV-1 (KOS); [12]): 6.5% | activity at 5 µM (HSV-1 (CLl0l); [12]): 4% | activity at 5 µM [1]: 100% | activity at 5 µM [2]: 85% | activity at 5 µM [3]: 0.7% | activity at 5 µM (PFA-resistant strains): 100%

O=c1[nH]c(=O)n([C@H]2C[C@H](O)[C@@H](CO)O2)cc1/C=C/Br [BVdU, (bromovinyl) deoxyuridine, reference compound]
activity at 30 µM (HSV-1 (KOS); [13]): 0.1% | activity at 30 µM (HSV-1 (CLl0l); [13]): 0.4% | activity at 30 µM (HSV-2 (333); Human alphaherpesvirus 2, read-out: plaque-forming units as % of control): 1.7% | activity at 30 µM [1]: 3.7% | activity at 30 µM [2]: 0.8% | activity at 30 µM [3]: 52%

O=c1ncc(Br)cn1[C@H]1C[C@H](O)[C@@H](CO)O1 [BrPdR, 1-(2-Deoxy-β-D-ribofuranosyl)-5-(bromo)-2-pyrimidinone]
activity at 100 µM (HSV-1 (KOS); Human alphaherpesvirus 1, 100 μM, read-out: plaque-forming units as % of control): 0.6% | activity at 100 µM (HSV-2 (333); Human alphaherpesvirus 2, 100 μM, read-out: plaque-forming units as % of control): 4.5% | activity at 100 µM (HSV-2 (CEU-G)): 7.1% | antiherpes / anti-viral activity (words) [4]: significant antiherpes activities

Nc1nc2c(ncn2COC(CO)CO)c(=O)[nH]1 [DHPG, Dihydroxy propoxymethyl guanine, reference compound]
Survivors/Total (HSV-2 (Strain 333) [5]; 40 mg/kg oral, 2 × 21/2): 20/20 | percent survival (HSV-2 (Strain 333) [5]; 40 mg/kg oral, 2 × 21/2): 100% | Survivors/Total (HSV-2 (Strain 333) [5]; [14]): 5/5 | percent survival (HSV-2 (Strain 333) [5]; [14]): 100% | Mean Survival Time (HSV-2 (Strain 333) [5]; 40 mg/kg oral, 2 × 21/2, control 9.8 ± 1.3): > 45 days | Mean Survival Time (HSV-2 (Strain 333) [5]; 40 mg/kg oral, 2 × 21/2, control 10.6 ± 2.1): > 45 days | Survivors/Total (HSV-2 (Strain 333) [5]; [15]): 2/5 | percent survival (HSV-2 (Strain 333) [5]; [15]): 40% | Mean Survival Time (days), of the mice that died (HSV-2 (Strain 333) [5]; 40 mg/kg oral, 2 × 21/2, innoculation dose 1 × 10^6 PFU, control 10.0 ± 1.2): 20.0 ± 7.0 days | % ILS (HSV-2 (Strain 333) [5]; [15]): 200%

C#Cc1cnc(=O)n([C@H]2C[C@H](O)[C@@H](CO)O2)c1 [EPdR]
Survivors/Total (HSV-2 (Strain 333) [5]; 100 mg/kg IP, 1 × 5): 1/5 | percent survival (HSV-2 (Strain 333) [5]; 100 mg/kg IP, 1 × 5): 20% | Mean Survival Time (days), of the mice that died (HSV-2 (Strain 333) [5]; 100 mg/kg IP, 1 × 5, control 9.6 ± 1.1): 9.0 ± 0.8 days | % ILS (HSV-2 (Strain 333) [5]; 100 mg/kg IP, 1 × 5): 94%

O=c1ncc(F)cn1[C@H]1C[C@H](O)[C@@H](CO)O1 [FPdR, 1-(2-Deoxy-β-D-ribofuranosyl)-5-fluoro-2-pyrimidinone]
antiviral activity, comparison of IPdR and FPdR (HSV-2 (strain 333) [6]): comparable in antiviral activity | inhibition at 100 µM (HSV-2 (strain 333) [6]; Human alphaherpesvirus 2, Vero, 100 μM, 48 hours): 50.5% | activity at 72 h, 1 µM ([7]; 1.0 μm, read-out: % Growth): 102% | activity at 72 h, 10 µM ([7]; 10 μm, read-out: % Growth): 84% | activity at 72 h, 25 µM ([7]; 25 μm, read-out: % Growth): 49% | activity at 72 h, 50 µM ([7]; 50 μm, read-out: % Growth): 21% | IC50 at 72 h ([7]; cytotoxicity, read-out: ID50): 25 µM | toxicity against the host cells [8]: significantly greater than IPdR | toxicity against the host cells ([8]; listed as 5-fluoro deoxyriboside): more toxic to the host than to the virus | toxicity to the host cell versus virus (host cell): more toxic to the host cell than to the virus | anti-viral activity (virus): exhibiting anti-viral activity

O=c1[nH]c(=O)n([C@H]2C[C@H](O)[C@@H](CO)O2)cc1I [idoxuridine, 5-iodo-2'-deoxyuridine]
disappearance of most of the active form from the blood [9]: about thirty | inactivation by nucleotidases (nucleotidases): rapidly inactivated by nucleotidases | toxicities upon systemic administration (bone marrow): bone marrow depression | response of herpatic lesions of the skin [10]: do not respond

Source: patent US4895937A, “5-ioso-2-pyrimidinone nucleoside” (The Research Foundation of State University of New York, priority 1988, dated 1990)
